Reference: PubChem BioAssay (NCI)
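All cell lines were grown in 96-well plates and treated with compound for 48 hours. At the GI50, growth is halved. Definition used: TGI = concentration required for complete inhibition of growth.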

Experiments:
Assay in all cases: NCI anticancer screen, dose series, 48 h
OVCAR-8 ovarian = test system: OVCAR-8 ovarian
M14 melanoma = test system: M14 melanoma
SNB-19 CNS = test system: SNB-19 CNS
SF-268 CNS = test system: SF-268 CNS
DU-145 prostate = test system: DU-145 prostate
IGROV1 ovarian = test system: IGROV1 ovarian
NCI-H23 lung = test system: NCI-H23 lung
SNB-75 CNS = test system: SNB-75 CNS
DLD-1 colon = test system: DLD-1 colon
SNB-78 CNS = test system: SNB-78 CNS

| SMILES | GI50 (OVCAR-8 ovarian) | TGI (OVCAR-8 ovarian) | GI50 (M14 melanoma) | TGI (M14 melanoma) | GI50 (SNB-19 CNS) | TGI (SNB-19 CNS) | GI50 (SF-268 CNS) | TGI (SF-268 CNS) | GI50 (DU-145 prostate) | TGI (DU-145 prostate) | GI50 (IGROV1 ovarian) | GI50 (NCI-H23 lung) | TGI (NCI-H23 lung) | GI50 (SNB-75 CNS) | TGI (SNB-75 CNS) | TGI (IGROV1 ovarian) | TGI (DLD-1 colon) | TGI (SNB-78 CNS) |
| --- | --- | --- | --- | --- | --- | --- | --- | --- | --- | --- | --- | --- | --- | --- | --- | --- | --- | --- |
| CC(=O)/C=C/c1ccc(N(C)Cc2ccc(C(C)(C)C)cc2)cc1 | 148 µM | 516 µM | 132 µM | 321 µM | 218 µM | 699 µM | 143 µM | 332 µM | 147 µM | 472 µM | 241 µM | 87.4 µM | 550 µM | 145 µM | 345 µM |  |  |  |
| O=C1/C(=c2\c3ccccc3n3c(=O)c4ccccc4nc23)Nc2ccccc21 |  | > 100 µM |  | > 100 µM |  | > 100 µM |  | > 100 µM |  | > 100 µM |  |  | > 100 µM |  | > 76.1 µM | > 100 µM |  |  |
| NS(=O)(=O)c1ccc(NCc2cnc3ccccc3c2)cc1 |  | > 100 µM |  | > 100 µM |  | > 100 µM |  | > 100 µM |  | > 100 µM |  |  | > 100 µM |  | > 100 µM | > 100 µM |  |  |
| CCNCCNc1cc(C2CCCC2)c(C#N)c2nc3ccccc3n12 | 3.52 µM | 10.6 µM | 2.06 µM | 4.08 µM | 6.26 µM | 21.1 µM | 3.28 µM | 14 µM | 3.71 µM | 13.8 µM | 3.5 µM | 7.42 µM | 24.3 µM | 1.63 µM | 4.02 µM | 16 µM |  |  |
| CCC1=C[C@H]2CN(CCc3c([nH]c4ccccc34)[C@@](C(=O)OC)(c3cc4c(cc3OC)N(C)[C@H]3[C@@](O)(C(=O)OC)[C@H](OC(C)=O)[C@]5(CC)[C@@H]6C[C@@H]6CN6CC[C@]43[C@@H]65)C2)C1 | 0.127 µM | 5.8 µM | 0.0264 µM | 0.156 µM | 0.0825 µM | 23.4 µM | 0.124 µM | 4.04 µM | 0.0239 µM | 3.15 µM | 0.144 µM | 0.121 µM | > 25 µM | 0.595 µM | > 25 µM | 6.77 µM |  |  |
| Cc1ccc(S(=O)(=O)N2C/C(=C\c3cc(F)cc(F)c3)C(=O)/C(=C/c3cc(F)cc(F)c3)C2)cc1 | 0.301 µM | 1.77 µM | 0.429 µM | 1.72 µM | 0.29 µM | 1.1 µM | 0.347 µM | 1.31 µM | 0.787 µM | 2.39 µM | 0.371 µM | 1.14 µM | 4.14 µM | 1.91 µM | 5.99 µM | 1.4 µM |  |  |
| Cn1c(C2CC(C)(C)c3c2c2ccccc2n3C)cc2ccccc21 (centres undefined) |  | > 304 µM |  |  |  | > 304 µM |  | > 304 µM |  |  |  |  | > 304 µM |  |  | > 304 µM | > 304 µM |  |
| COc1ccc2oc(-c3ccc(Cl)cc3)c(N3CCN(C)CC3)c2c1 | 1.9 µM | 3.94 µM | 1.95 µM | 4.26 µM | 1.97 µM | 5.18 µM | 2.36 µM | 5.61 µM | 1.88 µM | 3.98 µM | 1.05 µM | 2.88 µM | 8.99 µM | 1.48 µM | 4.01 µM | 2.69 µM |  |  |
| O=C(Nc1ncc(Cc2ccc(Cl)cc2)s1)c1ccc2c(c1)OCCO2 | 0.17 µM | > 100 µM | 0.0409 µM | 75.3 µM | 0.08 µM | > 92.4 µM | 0.786 µM | > 100 µM | 0.05 µM | 9.38 µM | 0.126 µM | 0.298 µM | > 100 µM | 0.0266 µM | 3.4 µM | > 100 µM |  |  |
| Cc1cc2c(=O)cc(-c3ccc(C(=O)O)cc3)oc2c(C(=O)O)c1C |  | > 100 µM |  | > 100 µM |  | > 100 µM |  |  |  |  |  |  | > 100 µM |  | > 100 µM | > 100 µM | > 100 µM | > 100 µM |
| COc1ccc(/C=C2\CCCC3=C2N=C2SC=NN2C3c2ccc(OC)c(OC)c2)cc1OC (centres undefined) | 5.51 µM | > 100 µM | 11.9 µM | > 100 µM | 32.9 µM | > 100 µM | 19.9 µM | > 100 µM | 23 µM | > 100 µM | 28.9 µM | 22.4 µM | > 100 µM | 9.38 µM | 44.1 µM | > 100 µM |  |  |
| COC1(C)Cc2c(c(C)c(O)c3c2C(=O)C=C(Cl)C3=O)O1 (centres undefined) |  | > 73.6 µM |  | 56.5 µM |  | > 100 µM |  | > 100 µM |  | > 100 µM |  |  | > 100 µM |  | > 100 µM | > 100 µM | 37.1 µM |  |
| N=c1c2c(=O)n3c(nc2nc2sc4ccc(Cl)cc4n12)-c1ccccc1Sc1ccccc1-3 | 2.95 µM | 11.8 µM | 2.99 µM | 10.6 µM | 4.31 µM | 20.4 µM | 3.52 µM | 18.3 µM | 4.31 µM | 19.7 µM | 3.81 µM | 1.9 µM | 7.49 µM | 2.45 µM | 9.66 µM | 18.3 µM |  |  |
| O=C(Cc1nc2ccccc2s1)NC12CC3CC(CC(C3)C1)C2 |  | > 100 µM |  | > 100 µM |  | > 100 µM |  | > 100 µM |  |  |  |  | > 100 µM |  | > 100 µM |  | > 100 µM | > 100 µM |
| C=C1CCC2C(C)(CO)C(O)CCC2(C)C1CC(O)C1=CCOC1=O (centres undefined) |  | > 100 µM |  | > 100 µM |  | > 100 µM |  | > 100 µM |  |  |  |  | > 100 µM |  | > 100 µM | > 100 µM | > 100 µM |  |
| COc1ccc2c(c1)N(CCC1CCCCN1C)c1ccccc1S2 (centres undefined) |  | 30.9 µM |  | 10.9 µM |  | 28.9 µM |  | 26.6 µM |  | 26.2 µM |  |  | 35.2 µM |  | 24.6 µM | 26.5 µM |  |  |
| FC(F)(F)c1ccccc1C=NC12CC3CC(CC(C3)C1)C2 |  | > 100 µM |  | > 100 µM |  | > 100 µM |  | > 100 µM |  |  |  |  | > 100 µM |  | > 100 µM | > 100 µM |  | > 100 µM |
| COc1ccc2c(c1)CC[C@@H]1[C@@H]2CC[C@]2(C)c3c(cc(C(=O)c4ccccc4)c4sccc34)C[C@@H]12 | > 100 µM | > 100 µM | 75.4 µM | > 100 µM | > 100 µM | > 100 µM | > 100 µM | > 100 µM | > 100 µM | > 100 µM | > 100 µM | > 100 µM | > 100 µM | 22.8 µM | > 100 µM | > 100 µM |  |  |
